According to patent US7601709:
Where two headings read alike, the source gives them in different places.

Conditions: rcm bond, 40.0 °C

In the case of `CCOC(=O)[C@@]12C[C@H]1C=CCCCCC[C@H](NC(=O)OC(C)(C)C)C(=O)N1C[C@H](n3nnc(-c4ccccc4)n3)C[C@H]1C(=O)N2`, the ring closure, yield of all isomers (from C=CCCCCC[C@H](NC(=O)OC(C)(C)C)C(=O)N1C[C@H](n2nnc(-c3ccccc3)n2)C[C@H]1C(=O)N[C@]1(C(=O)OCC)C[C@H]1C=C, Hoveyda catalyst, DCM, 2.18 mM, 20.0 h) is reported as 85.5%.

With `CCOC(=O)[C@@]12C[C@H]1C=CCCCCC[C@H](NC(=O)OC(C)(C)C)C(=O)N1C[C@H](c3nnn(Cc4ccc(-c5ccccc5)cc4)n3)C[C@H]1C(=O)N2` the ring closure, yield of all isomers (from C=CCCCCC[C@H](NC(=O)OC(C)(C)C)C(=O)N1C[C@H](c2nnn(Cc3ccc(-c4ccccc4)cc3)n2)C[C@H]1C(=O)N[C@]1(C(=O)OCC)C[C@H]1C=C, Hoveyda's catalyst, CH2Cl2, 10.0 mM, 16.0 h) was 91.3%.

Compound `CCOC(=O)[C@@]12C[C@H]1C=CCCCCC[C@H](NC(=O)OC(C)(C)C)C(=O)N1C[C@@H](O)C[C@H]1C(=O)N2` has a ring closure, yield of all isomers (from C=CCCCCC[C@H](NC(=O)OC(C)(C)C)C(=O)N1C[C@@H](O)C[C@H]1C(=O)N[C@]1(C(=O)OCC)C[C@H]1C=C, Hoveyda 1st generation catalyst, DCM, 14.45 mM, 12.0 h) of 87%.
